Key:
[1] = target: T1, Nav1.5 sodium ion channel (alpha subunit) (Homo sapiens, UniProt Q14524); test: NaV1.5 whole cell recordings, HEK293 (AVIVA; for ACP-201, ACP-203 and ACP-204); format: cell-based; conditions: manual patch clamp; step to 0 mV; AVIVA method for ACP-201, ACP-203, ACP-204; read-out: NaV 1.5 IC50
T1 construct: host or cells: HEK293 cells
Method: NaV1.5 methods (for ACP-201, ACP-203 and ACP-204): These experiments were carried out at AVIVA Biosciences Corporation, 6330 Nancy Ridge Drive, Suite 103, San Diego, CA 92121.
Cells: HEK293 cells transfected with Nav1.5 sodium ion channel (alpha subunit) were selected for this study. Cells were cultured in DMEM/F12 containing 10% FBS, 500 μg/mL G418 and 1% penicillin/streptomycin. Trypsin (0.05%) was utilized for cell harvesting.
External Solution: 90 mM NaCl; 50 mM TEA; 10 mM HEPES; 10 mM glucose; 4 mM KCl; 2 mM CaCl2); 305-315 mOsm; pH 7.4 (adjusted with 5M NaOH).
Internal Solution: 140 mM CsF; 10 mM NaCl; 1 mM MgCl2; 10 mM HEPES; 5 mM EGTA; 295-305 mOsm; pH 7.4 (adjusted with 1M NaOH).
Electrophysiology: All whole cell recordings were performed using PX 7000A (Axon Instruments) with AVIVA's […] technology. To achieve stable recordings, cells were voltage clamped at a holding potential 20 mV more negative than steady state half inactivation potential (Vh=V1/2−20 mV). V1/2 was determined by a pre-step from −130 mV to −40 MV for 1000 ms followed by a −10 mV step. V1/2 was determined independently for each cell to correct for both electrode potential and liquid junction potential offsets.
Test Article Handling and Dilutions: All test articles were prepared from 10 mM DMSO stock solutions. Solutions were mixed by sonication for 20 min, followed by vigorous vortexing. Prior to testing, compounds were diluted to test concentrations in glass vials using External Solution. Dilutions were prepared no longer than 20 min prior to use.
Electrophysiology Procedures: After achieving whole cell configuration, cells were monitored for 90 s to assess stability and then washed with External Solution for 66 s. for each cell achieving whole-cell access, an IV curve and steady state inactivation curve was measured. […] Whole cell parameters were monitored throughout the recoding procedure and corrected for any possible access resistance or input capacitance change (whole-cell compensation). […]

hCav1.2/β2/α2δ channels = hCav1.2/β2/α2δ channels (Homo sapiens, UniProt Q13936); test: CaV1.2 manual patch clamp, CHO cells (CR-CLE); format: cell-based; conditions: manual patch clamp, room temperature, read-out: CaV 1.2 IC50
Sequence of hCav1.2/β2/α2δ channels (Q13936 whole entry): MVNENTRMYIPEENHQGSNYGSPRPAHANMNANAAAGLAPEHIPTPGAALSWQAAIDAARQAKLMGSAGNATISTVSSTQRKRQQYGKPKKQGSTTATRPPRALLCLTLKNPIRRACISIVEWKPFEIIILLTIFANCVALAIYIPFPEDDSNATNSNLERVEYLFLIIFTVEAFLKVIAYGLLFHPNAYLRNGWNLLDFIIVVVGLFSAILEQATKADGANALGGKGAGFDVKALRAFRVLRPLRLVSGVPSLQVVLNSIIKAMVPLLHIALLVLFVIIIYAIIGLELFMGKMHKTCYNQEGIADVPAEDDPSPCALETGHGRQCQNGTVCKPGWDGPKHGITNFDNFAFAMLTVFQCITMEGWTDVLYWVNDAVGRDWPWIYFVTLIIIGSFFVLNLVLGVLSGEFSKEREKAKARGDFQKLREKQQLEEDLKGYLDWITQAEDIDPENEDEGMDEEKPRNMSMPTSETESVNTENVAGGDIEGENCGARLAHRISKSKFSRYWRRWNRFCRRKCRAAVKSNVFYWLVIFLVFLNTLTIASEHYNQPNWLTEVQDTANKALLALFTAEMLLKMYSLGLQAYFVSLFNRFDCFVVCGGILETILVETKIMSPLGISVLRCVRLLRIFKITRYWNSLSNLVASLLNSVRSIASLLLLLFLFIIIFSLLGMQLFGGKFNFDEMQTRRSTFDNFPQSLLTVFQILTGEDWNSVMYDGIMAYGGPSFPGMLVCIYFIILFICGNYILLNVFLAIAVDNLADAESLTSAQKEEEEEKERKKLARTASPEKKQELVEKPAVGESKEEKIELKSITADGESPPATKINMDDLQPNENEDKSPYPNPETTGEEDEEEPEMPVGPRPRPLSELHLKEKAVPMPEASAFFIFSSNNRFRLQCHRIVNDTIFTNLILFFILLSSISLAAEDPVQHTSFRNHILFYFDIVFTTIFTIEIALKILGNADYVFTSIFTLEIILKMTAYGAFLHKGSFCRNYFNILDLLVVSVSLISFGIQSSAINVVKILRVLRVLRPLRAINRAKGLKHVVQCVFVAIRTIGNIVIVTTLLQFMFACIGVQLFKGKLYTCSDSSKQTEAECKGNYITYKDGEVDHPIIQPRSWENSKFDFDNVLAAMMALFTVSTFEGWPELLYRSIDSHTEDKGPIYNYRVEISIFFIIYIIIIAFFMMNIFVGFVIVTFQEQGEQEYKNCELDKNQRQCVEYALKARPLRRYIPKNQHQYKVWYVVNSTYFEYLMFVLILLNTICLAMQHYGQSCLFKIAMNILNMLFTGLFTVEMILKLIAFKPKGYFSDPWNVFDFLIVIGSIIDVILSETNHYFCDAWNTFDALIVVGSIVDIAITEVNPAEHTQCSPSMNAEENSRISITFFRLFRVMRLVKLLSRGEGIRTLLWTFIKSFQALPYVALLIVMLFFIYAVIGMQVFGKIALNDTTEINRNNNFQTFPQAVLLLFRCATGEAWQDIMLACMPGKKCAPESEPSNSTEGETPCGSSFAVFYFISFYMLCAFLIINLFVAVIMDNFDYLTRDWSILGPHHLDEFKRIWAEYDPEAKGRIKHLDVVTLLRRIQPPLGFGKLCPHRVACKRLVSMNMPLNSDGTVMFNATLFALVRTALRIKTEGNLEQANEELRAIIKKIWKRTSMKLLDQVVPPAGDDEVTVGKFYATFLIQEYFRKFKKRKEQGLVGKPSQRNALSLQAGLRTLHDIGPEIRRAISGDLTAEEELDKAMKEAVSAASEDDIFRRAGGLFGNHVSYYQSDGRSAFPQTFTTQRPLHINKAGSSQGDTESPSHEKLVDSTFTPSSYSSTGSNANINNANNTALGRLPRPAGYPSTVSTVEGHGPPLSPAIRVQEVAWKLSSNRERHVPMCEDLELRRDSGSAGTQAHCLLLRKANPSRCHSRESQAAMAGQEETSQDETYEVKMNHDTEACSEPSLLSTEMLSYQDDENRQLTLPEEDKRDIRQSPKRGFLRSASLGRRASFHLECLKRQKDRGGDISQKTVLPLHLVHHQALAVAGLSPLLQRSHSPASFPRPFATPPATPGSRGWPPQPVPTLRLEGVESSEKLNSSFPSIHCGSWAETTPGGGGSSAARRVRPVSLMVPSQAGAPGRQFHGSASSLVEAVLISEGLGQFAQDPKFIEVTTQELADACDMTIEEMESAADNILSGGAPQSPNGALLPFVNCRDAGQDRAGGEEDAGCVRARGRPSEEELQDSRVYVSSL
Sequence of hCav1.2/β2/α2δ channels (Q08289 whole entry partner): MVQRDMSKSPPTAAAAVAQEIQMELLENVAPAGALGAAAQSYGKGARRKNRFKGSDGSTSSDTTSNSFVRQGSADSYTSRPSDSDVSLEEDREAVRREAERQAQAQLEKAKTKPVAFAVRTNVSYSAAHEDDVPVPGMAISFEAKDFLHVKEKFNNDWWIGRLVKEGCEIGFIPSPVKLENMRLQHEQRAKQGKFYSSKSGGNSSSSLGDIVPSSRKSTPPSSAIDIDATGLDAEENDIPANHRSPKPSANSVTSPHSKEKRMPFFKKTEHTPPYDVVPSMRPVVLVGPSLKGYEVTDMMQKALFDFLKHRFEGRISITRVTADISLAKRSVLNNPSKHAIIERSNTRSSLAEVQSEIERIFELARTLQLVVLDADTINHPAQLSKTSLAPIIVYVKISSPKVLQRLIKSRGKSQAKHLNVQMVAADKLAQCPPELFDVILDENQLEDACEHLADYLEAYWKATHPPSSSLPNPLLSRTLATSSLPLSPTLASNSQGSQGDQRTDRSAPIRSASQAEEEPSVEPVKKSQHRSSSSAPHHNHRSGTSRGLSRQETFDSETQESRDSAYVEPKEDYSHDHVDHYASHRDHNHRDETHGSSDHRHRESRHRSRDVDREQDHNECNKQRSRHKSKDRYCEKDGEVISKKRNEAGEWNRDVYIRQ
Sequence of hCav1.2/β2/α2δ channels (P54289 25-956 partner limits assumed): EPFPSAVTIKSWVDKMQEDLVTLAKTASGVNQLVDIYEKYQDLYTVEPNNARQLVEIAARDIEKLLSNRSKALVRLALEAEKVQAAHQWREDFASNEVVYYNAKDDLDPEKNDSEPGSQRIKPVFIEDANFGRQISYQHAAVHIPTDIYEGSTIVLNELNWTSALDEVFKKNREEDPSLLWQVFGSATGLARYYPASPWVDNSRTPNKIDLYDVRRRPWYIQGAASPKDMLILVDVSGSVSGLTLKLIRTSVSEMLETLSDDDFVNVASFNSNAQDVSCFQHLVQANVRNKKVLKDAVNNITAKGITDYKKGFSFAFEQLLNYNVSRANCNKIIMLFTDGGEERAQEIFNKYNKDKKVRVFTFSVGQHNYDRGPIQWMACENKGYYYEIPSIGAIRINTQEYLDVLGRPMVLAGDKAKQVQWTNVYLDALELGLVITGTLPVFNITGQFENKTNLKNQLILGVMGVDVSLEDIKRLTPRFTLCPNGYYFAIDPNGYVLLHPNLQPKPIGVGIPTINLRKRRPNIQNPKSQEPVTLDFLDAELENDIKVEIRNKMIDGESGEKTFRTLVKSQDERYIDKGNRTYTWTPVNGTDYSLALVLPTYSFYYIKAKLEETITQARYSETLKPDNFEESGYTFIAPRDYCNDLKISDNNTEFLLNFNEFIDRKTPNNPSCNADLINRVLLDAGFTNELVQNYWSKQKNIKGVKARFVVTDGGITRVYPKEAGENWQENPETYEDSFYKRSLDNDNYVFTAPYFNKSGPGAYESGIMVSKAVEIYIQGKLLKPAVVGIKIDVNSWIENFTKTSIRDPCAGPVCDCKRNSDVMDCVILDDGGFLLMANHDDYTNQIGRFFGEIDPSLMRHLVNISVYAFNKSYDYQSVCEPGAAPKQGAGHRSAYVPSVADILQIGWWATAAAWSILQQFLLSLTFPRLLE
Sequence of hCav1.2/β2/α2δ channels (P54289 957-1103 partner limits assumed): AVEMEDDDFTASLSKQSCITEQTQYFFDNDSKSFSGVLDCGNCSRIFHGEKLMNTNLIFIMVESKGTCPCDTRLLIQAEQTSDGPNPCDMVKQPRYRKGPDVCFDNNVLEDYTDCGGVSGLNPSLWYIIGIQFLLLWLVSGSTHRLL
From the text: Stocks were maintained in cryogenic storage. […] Each culture dish was identified by a notation of channel name, passage number, and date.
Rationale for Selection of Ion Channel and Expression Systems: Reduction of ICa,L is associated with action potential shortening in atrial fibrillation (Van Wagoner, et al., Circ Res 85:428-436 (1999)) while augmentation of ICa,L current may produce action potential prolongation (Ahmmed, et al., Circ Res 86:558-570 (2000)) and early after depolarizations (January, et al., Circ Res 62:563-571 (1988)). ICa.L is produced by the combination of calcium channel subunits encoded by CACNA1C (α1-subunit), CACNB2 (β2-subunit) and CACNA2D1 (α2δ-subunit) cDNAs.
• Organism: Cricetulus griseus • Tissue: Ovary; transfected with human CACNA1C • (α1-subunit), CACNB2 (β2-subunit), and • CACNA2D1 (α2δ-subunit) cDNAs • Morphology: Epithelial • Age/Stage: Adult • Source Strain: ATCC, Manassas, VA • Source Substrain: CR-CLE
CHO Cell Culture Procedures: CHO cells were stably co-transfected with human CACNA1C (α1-subunit), CACNB2 (β2-subunit), and CACNA2D1 (α2δ-subunit) cDNAs. Stable transfectants were selected by coexpression of the cDNAs with antibiotic resistance genes for blasticidin, hygromycin, G418, and zeocin. Selection pressure was maintained by including these antibiotics in the culture medium. Cells were cultured in Ham's F12 Medium supplemented with 10% fetal bovine serum, penicillin-streptomycin (100 units/mL), blasticidin (10 μg/mL), zeocin (400 μg/mL), G418 (250 μg/mL) and hygromycin (250 μg/mL). To avoid Ca^2+-induced toxicity, verapamil (3 μmol/L) was added to the cultured cells.
hCav1.2/β2/α2δ-CHO is a tetracycline-inducible cell line. To induce expression, tetracycline at a final concentration of 1 μg/mL was added to media lacking the selection antibiotics. Currents were recorded greater than 16 hours post-induction.
Treatment Groups: All experiments were performed at room temperature. Each cell acted as its own control.
Each concentration was tested in at least three cells (n≥3).
Positive Control Group: The positive control article nifedipine (Sigma-Aldrich) was tested in two cells (n=2) at 0.1 μM. Previous results have shown that nifedipine at 0.1 μM inhibits hCav1.2 current by approximately 90%.
Electrophysiological Procedures: Cells were superfused with vehicle control solution. Micropipette solution for whole cell patch clamp recordings was composed of (mM): Cs-methanesulfonate (MES), 130; TEA-Cl, 20, MgCl2, 1; EGTA, 10; Mg-ATP, 4; Tris-GTP, 0.3, phosphocreatine di-(Tris) salt, 14, creatine phosphokinase, 50 U/mL, and HEPES, 10; pH adjusted to 7.2 with N-methyl-D-glucamine or CsOH. Micropipette solution was prepared in batches, aliquoted, stored frozen, and a fresh aliquot thawed each day. […] Before digitization, current records were low-pass filtered at one-fifth of the sampling frequency.
Experimental Procedures: Onset and steady inhibition was evaluated at a test potential of 0 mV (150 ms duration), repeated at ten-second intervals from a holding potential of −40 mV. Peak current was measured during the step to 0 mV. Peak current was monitored until a new steady state was achieved. hCav1.2 current was monitored until a new steady state was achieved and a steady state was maintained for at least 20 s before applying test article or positive control article formulations. […]
Nonlinear least squares fits were solved with the Solver add-in for Excel 2003 or later (Microsoft, Redmond, WA) and the IC50 was calculated.

Row | SMILES | IC50 [1] [µM] | IC50 (hCav1.2/β2/α2δ channels) [µM]
1 | CC(C)COc1ccc(CNC(=O)N(Cc2ccc(F)cc2F)C2CCN(C)CC2)cc1 [Example 3, 1-[(2,4-difluorophenyl)methyl]-1-(1-methylpiperidin-4-yl)-3-{[4-(2-methylpropoxy)phenyl]methyl}urea] | 4.2 | 1.4
2 | CC(C)Oc1ccc(CNC(=O)N(Cc2ccc(F)cc2F)C2CCN(C)CC2)cc1 [Example 5, 1-[(2,4-difluorophenyl)methyl]-1-(1-methylpiperidin-4-yl)-3-{[4-(propan-2-yloxy)phenyl]methyl}urea] | > 10 | 11.3
3 | CN1CCC(N(Cc2ccc(F)cc2F)C(=O)NCc2ccc(OC3CC3)cc2)CC1 [Example 17, 3-[(4-cyclopropoxyphenyl)methyl]-1-[(2,4-difluorophenyl)methyl]-1-(1-methylpiperidin-4-yl)urea] | > 10 | 3.5
